Measurements taken from paper PMC7155171, “Probing the Open Global Health Chemical Diversity Library for Multistage-Active Starting Points for Next-Generation Antimalarials” (ACS Infectious Diseases, 2020).
pIC50: −log10 of the molar value. Where two headings read alike, the source gives them in different places.

Experiments:
[1] = system: P. falciparum asexual blood stage (wild-type and DDD01061024-resistant Dd2-B2 clones); test: Lactate dehydrogenase (LDH) asexual blood stage assay; assay type: cell-based, Plasmodium falciparum; settings: Plasmodium falciparum, DD2, read-out: LDH ABS assay IC50
From the text: Mutations within this site, and indeed at our V259L residue, were previously reported using other known cytochrome b inhibitors including ELQ400[49] and RYL-552.[50]
(§1) Figure S3. DDD01061024 is a cytochrome bc1 inhibitor.
The dual stage inhibitor, DDD01061024, is shown occupying the Q0 site (residues outlined in orange) of a Pf Cyt Bc1 homology model (from PDB: 1BE3) (a). A local V259L substitution (red) in mutant clones may destabilize the interactions within this pocket, helping resistant clones tolerate higher doses of the inhibitor (b). DDD01061024-resistannt mutants show cross-resistance to atovaquone (c), another multistage active antimalarial which targets the Q0 binding site. Dose dependent inhibition was determined using a metabolic endpoint (LDH) before normalizing to controls (n=2). Measuring the percentage of PbGFP infected hepatocytes using a high content imaging system validates the liver-stage potency of DDD01061024 in a fluorescence-based model (d). Infected hepatocytes were counted using luminescence-independent high content imaging in treated wells and normalized to controls over two replicates.
(1 picture or pasted object on this page, not shown here)

[2] = system: P. berghei-GFP (PbGFP) liver stage; test: P. berghei-GFP liver stage high content imaging in Huh7.5.1 hepatocytes; assay type: cell-based; settings: Plasmodium berghei, Huh-7.5.1, 48 h, read-out: liver stage high content imaging assay IC50
Experimental: For the fluorescent liver stage validation, roughly 2500 P. berghei-GFP (PbGFP) sporozoites[76] were dissected from mosquitoes provided by the NYU Insectary Core Facility and seeded onto a lawn of 5000 Huh7.5.1 hepatocytes in 384-well plates. These assay plates were pretreated with DDD01061024 in 8-point dose response (10–4.57 × 10^–3 μM), with atovaquone (0.5–3.91 × 10^–3 μM) and DMSO (0.5%) as positive and negative controls, respectively. Unlike our standard HepG2 cell line, these Huh7.5.1 cells lack GFP expression, making it preferable for these experiments. After a 48 h incubation in the presence of our test compounds, the presence of GFP positive infected cells were imaged and counted using the Operetta High-content Imaging System (PerkinElmer).
as §1
The dual stage inhibitor, DDD01061024, is shown occupying the Q0 site (residues outlined in orange) of a Pf Cyt Bc1 homology model (from PDB: 1BE3) (a). […] Dose dependent inhibition was determined using a metabolic endpoint (LDH) before normalizing to controls (n=2). Measuring the percentage of PbGFP infected hepatocytes using a high content imaging system validates the liver-stage potency of DDD01061024 in a fluorescence-based model (d). Infected hepatocytes were counted using luminescence-independent high content imaging in treated wells and normalized to controls over two replicates. […]

[3] = biological target: P. berghei liver stage (PbLuc); test: P. berghei luciferase liver stage (PbLuc) assay in HepG2-A16-CD81 hepatocytes; assay type: cell-based, Plasmodium berghei; settings: 48 h liver stage, HepG2-A16-CD81
[4] = biological target: recombinant firefly luciferase (Photinus pyralis, UniProt P08659); test: biochemical; settings: read-out: rLuc IC50
[5] = system: HepG2-A16-CD81 hepatocytes; test: HepG2 cytotoxicity screening (CellTiter-Glo); settings: HepG2-A16-CD81, read-out: HepG2 tox IC50
[6] = system: P. falciparum Dd2 (PfLuc) line expressing firefly luciferase, asexual blood stage; test: microbe, parasite or virus in culture; assay type: cell-based, Plasmodium falciparum; settings: for pIC50 / Emax: DD2
[7] = system: P. falciparum Dd2; test: SYBR green I asexual blood stage proliferation assay (96 h); assay type: cell-based, Plasmodium falciparum; settings: Plasmodium falciparum

Chain of recombinant firefly luciferase (P08659 whole entry): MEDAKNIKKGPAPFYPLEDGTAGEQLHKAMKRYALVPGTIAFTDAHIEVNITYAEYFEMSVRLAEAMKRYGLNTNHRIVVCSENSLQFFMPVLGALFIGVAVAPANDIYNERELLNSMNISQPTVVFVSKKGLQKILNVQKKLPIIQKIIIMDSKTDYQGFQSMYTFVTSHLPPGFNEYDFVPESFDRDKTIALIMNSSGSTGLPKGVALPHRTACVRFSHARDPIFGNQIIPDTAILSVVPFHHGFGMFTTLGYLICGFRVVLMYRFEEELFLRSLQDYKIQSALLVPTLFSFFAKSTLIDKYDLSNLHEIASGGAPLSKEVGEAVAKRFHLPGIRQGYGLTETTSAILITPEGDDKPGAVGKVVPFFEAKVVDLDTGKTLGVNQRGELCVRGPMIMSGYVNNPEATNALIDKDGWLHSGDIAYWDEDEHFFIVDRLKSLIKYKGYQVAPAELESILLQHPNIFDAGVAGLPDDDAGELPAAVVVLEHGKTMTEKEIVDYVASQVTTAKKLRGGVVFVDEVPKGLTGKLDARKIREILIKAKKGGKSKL

Cc1ccc(-c2ccc(C3CNCCO3)nc2)cc1 (centres unmarked) [DDD01061024]
pIC50 [1]: 6.28 | pIC50 [2]: 6.43 | Pbluc (EEF) IC50 [3]: submicromolar | pIC50 ([3]; Plasmodium berghei, HepG2-A16-CD81, 48 h, read-out: Pbluc (EEF) IC50): > 9.85 | pIC50 [4]: 8.49 | pIC50 [5]: < 4.30 | IC50 ([6]; Plasmodium falciparum, DD2, read-out: CDD P. falciparum Luciferase ABS 11-pt Reconfirmation Dose Response (48hr): IC50 (μM), 11-pt dose response, 48hr): 0.533 µM | pIC50 ([6]; Plasmodium falciparum, 8-pt dose response, 96hr, read-out: CDD P. falciparum Luciferase ABS 8-pt Reconfirmation Dose Response (96hr): IC50): 6.70 | Emax ([6]; Plasmodium falciparum, 11-pt dose response, 48hr, read-out: CDD P. falciparum Luciferase ABS 11-pt Reconfirmation Dose Response (48hr): Maximum inhibition (%)): 99.6% | pIC50 ([6]; Plasmodium falciparum, 11-pt dose response, 96hr, read-out: CDD P. falciparum Luciferase ABS 11-pt Reconfirmation Dose Response (96hr): IC50): 6.24 | Emax ([6]; Plasmodium falciparum, 11-pt dose response, 96hr, read-out: CDD P. falciparum Luciferase ABS 11-pt Reconfirmation Dose Response (96hr): Maximum inhibition (%)): 99.5% | ABS IC50 ([6]; asexual blood stage, assay format not given): submicromolar | Emax ([7]; DD2, Sybr Green I, 11-pt dose response, 96hr, read-out: CDD P. falciparum Sybr Green I ABS 11-pt Reconfirmation Dose Response (96hr): Maximum inhibition (%)): 98.9% | pIC50 ([7]; 96 h, Dd2, read-out: 96 h SYBR green ABS IC50): 6.46
